Data published in publication PMC6857051, “Proliferative regulation of alveolar epithelial type 2 progenitor cells by human Scnn1d gene” (Theranostics, 2019).

Key:
[1] = test system: ENaC activity in mouse AT2 monolayers; experiment: Ussing chamber short-circuit current, mAT2 monolayers; assay type: cell-based; conditions: mAT2 (and MTE) monolayers, Isc, Figure 5D
Description: Mouse AT2 cell isolation and monolayer cultures. Mouse AT2 cells were isolated from both wt and Scnn1d Tg/Cre strains with C57BL/6 genetic background with a modified protocol of a previous publication, [72]. Briefly, lungs of euthanized mice were removed and incubated in dispase for 45 minutes, and then were gently teased and incubated in DMEM/F-12 + 0.01% DNase I for 10 minutes. Cells were passed through a serial of Nitex filters (100, 40, 30, and 10 microns; Corning, USA) and centrifuged at 300 × g for 10 minutes. Resuspended cells were incubated with biotin conjugated anti-CD16/32, CD45 and CD119 antibodies (BD Pharmingen, USA) and then incubated with streptavidin-coated magnetic particles. The cells were then incubated for 2 h at 37 °C in a plastic culture dish precoated with mouse IgG to remove fibroblasts. Upon passing the request for both viability (> 90%) and purity assays (> 94%) (Figures S7 & S8), mouse laminin 1 precoated transwells (Corning Costar, USA) were seeded with AT2 cells (10^6 cells/cm^2). […] Transepithelial resistance (RT) and potential difference (ET) were measured with an epithelial voltohmmeter (World Precision Instrument, USA). IEQ values were calculated as the ratio of ET / RT values. […] The transmonolayer potential was short circuited to 0 mV, and Isc level was measured with an epithelial voltage clamp (VCC-MC8, Physiologic Instruments). […]

[2] = test system: alveolar fluid clearance in human lungs; experiment: Alveolar fluid clearance in human lungs ex vivo; conditions: n=5 per group, 60 minutes after instillation
From the text: Alveolar fluid clearance in human lungs ex vivo. The studies followed the guide of the […] and were approved by the Ethics Committee of the China Medical University (CMU) at Shenyang, China. All patients were given oral and written informed consent forms. Human lung tissues were obtained during pulmonary resection surgeries with lung cancer at the First Affiliated Hospital of CMU. There were no fibrous or emphysematous lesions as assessed by preoperative chest CT scanning. Human lung segments were prepared, and AFC measurements were done as described previously. Briefly, the segmental bronchus was occluded by a 10-Fr. balloon catheter immediately after removal of the lung, and occluded segments that were located furthest away from the focus of tumor were chosen. A warmed physiologic saline solution (20 ml; 37°C) containing 5% BSA with or without amiloride (1 mM) was instilled into the distal air spaces through the catheter. After instillation, the lungs were inflated with 100% oxygen at an airway pressure of 7 cm H2O. Alveolar fluid was aspirated 60 minutes after instillation. […] AFC values were calculated as follows: AFC = [(Vi - Vf)/Vi] × 100, where V is the volume of the instilled albumin solution (i) and the final alveolar fluid (f). […]

[3] = test system: δ802- and γ-ENaC subunits; experiment: Immunoblot of cleavage of tagged δ802- and γ-ENaC subunits in oocytes by serine proteases; assay type: biochemical, human; conditions: 10 μg/ml, 45 minutes at room temperature
Description: Figure 3 Activation of δ802-containing ENaC channels by serine proteases. (A) Activation of δ802βγ ENaC expressed in Xenopus oocytes by two-chain urokinase plasminogen activator (tc-uPA). ENaC activity was measured at the membrane potential of -100 mV at defined time points post incubation with 10 μg/ml tc-uPA. n = 9-15. mean ± s.e.m. * P<0.05 vs data at the zero minute (min). (B) Time course of stimulatory effects of plasmin on δ802βγ-ENaC activity. n=12. * P<0.05. (C) Identification of subunit responsible for plasmin activation. Fold of amiloride-sensitive current (ASI) of ENaC-associated current in the presence of plasmin over that in the absence of plasmin was computed for oocytes expressing δ802+β+γ (δβγ), δ802 alone (δ), δ802+β(δβ), and δ802+γ (δγ). n = 12-15. * P<0.05. (D) Inhibitory effects of α-13 peptide on δ802αβγ- (δαβγ) and αβγ-ENaC activity post treatment of plasmin and aprotinin. Currents (I) at -100 mV were compared in the absence of amiloride (basal, open bar), presence of α-13 peptide (α13, closed bar), and amiloride (amil, grey bar). n=5. * P<0.05 vs basal currents, & P < 0.05 vs those in the presence of α-13 peptide. (E) Fractions of α-13 sensitive currents in cells pre-treated with plasmin and aprotinin. n=8. Control, without pre-treatment. (F) Cleavage of V5-tagged δ802- and γ-ENaC subunits by serine proteases. NI, non-injected oocytes as negative controls for ENaC expression. Oocytes incubated with chymotrypsin (CT, 10 μg/ml), plasmin (PI, 10 μg/ml) for 45 minutes at room temperature. Cells treated with the same volume of saline (‑) were controls for serine proteases.

N=C(N)NC(=O)c1nc(Cl)c(N)nc1N [amiloride]
apparent ki value of amiloride, controls versus δ802-expressing cells [1]: much lesser in controls

Ac-LRGTLPHPLQRLR-NH2 [α-13 peptide]
fraction of total alveolar fluid clearance inhibited [2]: Approximately half

B1: plasmin: serine protease of the plasmin(ogen) signal pathway for fibrinolysis (protein, UniProt P00747 20-580; P00747 581-810, looked up)
Plasmin heavy chain A: EPLDDYVNTQGASLFSVTKKQLGAGSIEECAAKCEEDEEFTCRAFQYHSKEQQCVIMAENRKSSIIIRMRDVVLFEKKVYLSECKTGNGKNYRGTMSKTKNGITCQKWSSTSPHRPRFSPATHPSEGLEENYCRNPDNDPQGPWCYTTDPEKRYDYCDILECEEECMHCSGENYDGKISKTMSGLECQAWDSQSPHAHGYIPSKFPNKNLKKNYCRNPDRELRPWCFTTDPNKRWELCDIPRCTTPPPSSGPTYQCLKGTGENYRGNVAVTVSGHTCQHWSAQTPHTHNRTPENFPCKNLDENYCRNPDGKRAPWCHTTNSQVRWEYCKIPSCDSSPVSTEQLAPTAPPELTPVVQDCYHGDGQSYRGTSSTTTTGKKCQSWSSMTPHRHQKTPENYPNAGLTMNYCRNPDADKGPWCFTTDPSVRWEYCNLKKCSGTEASVVAPPPVVLLPDVETPSEEDCMFGNGKGYRGKRATTVTGTPCQDWAAQEPHRHSIFTPETNPRAGLEKNYCRNPDGDVGGPWCYTTNPRKLYDYCDVPQCAAPSFDCGKPQVEPKKCPGR
Plasmin light chain B: VVGGCVAHPHSWPWQVSLRTRFGMHFCGGTLISPEWVLTAAHCLEKSPRPSSYKVILGAHQEVNLEPHVQEIEVSRLFLEPTRKDIALLKLSSPAVITDKVIPACLPSPNYVVADRTECFITGWGETQGTFGAGLLKEAQLPVIENKVCNRYEFLNGRVQSTELCAGHLAGGTDSCQGDSGGPLVCFEKDKYILQGVTSWGLGCARPNKPGVYVRVSRFVTWIEGVMRNN
modifications: Plasmin
notes: serine protease of the plasmin(ogen) signal pathway for fibrinolysis
cleavage of γ-ENaC [3]: catalyzed
cleavage of δ802 subunit [3]: Neither chymotrypsin nor plasmin nor endogenous furin cleaved the δ802 subunit
